{
  "source": "patent US12708632B2",
  "about": "(Jazz Pharmaceuticals Research UK Limited, priority 2020, dated 2026)",
  "test_system": "seizures associated with Cortical Dysplasia and Cortical Brain Malformation",
  "test": "Open label, expanded-access program of botanically derived purified CBD: caregiver-diary seizure frequency",
  "type": "in vivo, human patients",
  "parameters": "reduction in atonic seizures over the treatment period / reduction in tonic seizures over the treatment period / reduction in focal seizures without impairment over the treatment period: concentration or dose not given beside the values",
  "settings": "for Seizure frequency: Focal with impairment: baseline 49.0; for Seizure frequency: Atonic: baseline 80.0",
  "protocol": "Subjects were required to be on one or more AEDs at stable doses for a minimum of two weeks prior to baseline and to have stable vagus nerve stimulation (VNS) settings and ketogenic diet ratios for a minimum of four weeks prior to baseline.\nDose was then increased weekly by 5 mg/kg/day to a goal of 20 to 25 mg/kg/day.\nA maximum dose of 50 mg/kg/day could be utilised for patients who were tolerating the medication but had not achieved seizure control; these patients had further weekly titration by 5 mg/kg/day.\nModifications were made to concomitant AEDs as per clinical indication.\nSeizure frequency, intensity, and duration were recorded by caregivers in a diary during a baseline period of at least 28 days. Changes in seizure frequency relative to baseline were calculated after at least 2 weeks and at defined timepoints of treatment.\nPatients may be defined as responders if they had more than 50% reduction in seizure frequency compared to baseline. the percent change in seizure frequency was calculated as follows: […]\nThe percent change of seizure frequency may be calculated for any time interval where seizure number has been recorded. For the purpose of this example the percent change of seizure frequency for the end of the treatment period was calculated as follows: […]",
  "note": "“Also recorded” adds a separate entry of the source.",
  "data": [
    {"smiles": "C=C(C)[C@@H]1CCC(C)=C[C@H]1c1c(O)cc(CCCCC)cc1O", "note": "[CBD, cannabidiol]", "values": [
      {"measurement": "Seizure frequency: Tonic", "setting": "Patient 4, 96 weeks, CBD 50.0 mg/kg/day, baseline 196.0", "result": 22.0, "unit": "seizures per week"},
      {"measurement": "Seizure frequency: Tonic", "setting": "Patient 4, 120 weeks, CBD 42.6 mg/kg/day, baseline 196.0", "result": 16.0, "unit": "seizures per week"},
      {"measurement": "Seizure frequency: Tonic", "setting": "Patient 4, 132 weeks, CBD 49.8 mg/kg/day, baseline 196.0", "result": 36.0, "unit": "seizures per week"},
      {"measurement": "reduction in tonic seizures over the treatment period", "setting": "Patient 4, treated for 132 weeks, vs baseline", "result": 81.6, "unit": "%"},
      {"measurement": "Seizure frequency: Tonic", "setting": "Patient 5, 4 weeks, CBD 20.0 mg/kg/day, baseline 4.0", "result": 3.2, "unit": "seizures per week"},
      {"measurement": "Seizure frequency: Tonic", "setting": "Patient 5, 8 weeks, CBD 35.0 mg/kg/day, baseline 4.0", "result": 11.0, "unit": "seizures per week"},
      {"measurement": "Seizure frequency: Tonic", "setting": "Patient 5, 12 weeks, CBD 50.0 mg/kg/day, baseline 4.0", "result": 1.0, "unit": "seizures per week"},
      {"measurement": "Seizure frequency: Tonic", "setting": "Patient 5, 24 weeks, CBD 50.0 mg/kg/day, baseline 4.0", "result": 0.0, "unit": "seizures per week"},
      {"measurement": "Seizure frequency: Tonic", "setting": "Patient 5, 36 weeks, CBD 47.0 mg/kg/day, baseline 4.0", "result": 0.0, "unit": "seizures per week"},
      {"measurement": "Seizure frequency: Tonic", "setting": "Patient 5, 48 weeks, CBD 46.0 mg/kg/day, baseline 4.0", "result": 1.0, "unit": "seizures per week"},
      {"measurement": "Seizure frequency: Tonic", "setting": "Patient 5, 60 weeks, CBD 49.0 mg/kg/day, baseline 4.0", "result": 1.0, "unit": "seizures per week"},
      {"measurement": "Seizure frequency: Tonic", "setting": "Patient 5, 72 weeks, CBD 50.0 mg/kg/day, baseline 4.0", "result": 0.0, "unit": "seizures per week"},
      {"measurement": "Seizure frequency: Tonic", "setting": "Patient 5, 84 weeks, CBD 50.0 mg/kg/day, baseline 4.0", "result": 0.0, "unit": "seizures per week"},
      {"measurement": "Seizure frequency: Tonic", "setting": "Patient 5, 96 weeks, CBD 49.7 mg/kg/day, baseline 4.0", "result": 0.0, "unit": "seizures per week"},
      {"measurement": "Seizure frequency: Tonic", "setting": "Patient 5, 108 weeks, CBD 49.7 mg/kg/day, baseline 4.0", "result": 0.0, "unit": "seizures per week"},
      {"measurement": "Seizure frequency: Tonic", "setting": "Patient 5, 132 weeks, CBD 49.1 mg/kg/day, baseline 4.0", "result": 0.0, "unit": "seizures per week"},
      {"measurement": "Seizure frequency: Tonic", "setting": "Patient 5, 144 weeks, CBD 50.0 mg/kg/day, baseline 4.0", "result": 0.0, "unit": "seizures per week"},
      {"measurement": "reduction in tonic seizures over the treatment period", "setting": "Patient 5, treated for 144 weeks, vs baseline", "result": 100, "unit": "%"},
      {"measurement": "Seizure frequency: Focal without impairment", "setting": "Patient 6, 4 weeks, CBD 25.0 mg/kg/day, baseline 20.0", "result": 8.0, "unit": "seizures per week"},
      {"measurement": "Seizure frequency: Focal without impairment", "setting": "Patient 6, 8 weeks, CBD 25.0 mg/kg/day, baseline 20.0", "result": 0.0, "unit": "seizures per week"},
      {"measurement": "Seizure frequency: Focal without impairment", "setting": "Patient 6, 16 weeks, CBD 25.0 mg/kg/day, baseline 20.0", "result": 4.0, "unit": "seizures per week"},
      {"measurement": "Seizure frequency: Focal without impairment", "setting": "Patient 6, 24 weeks, CBD 25.0 mg/kg/day, baseline 20.0", "result": 2.0, "unit": "seizures per week"},
      {"measurement": "reduction in focal seizures without impairment over the treatment period", "setting": "Patient 6, treated for 24 weeks, vs baseline", "result": 90, "unit": "%"},
      {"measurement": "Seizure frequency: Focal with impairment", "setting": "Patient 7, 2 weeks, CBD 10.0 mg/kg/day", "result": 22.0, "unit": "seizures per week"},
      {"measurement": "Seizure frequency: Focal without impairment", "setting": "Patient 7, 2 weeks, CBD 10.0 mg/kg/day, baseline 233.0", "result": 182.0, "unit": "seizures per week"},
      {"measurement": "Seizure frequency: Focal with impairment", "setting": "Patient 7, 4 weeks, CBD 20.0 mg/kg/day", "result": 26.0, "unit": "seizures per week"},
      {"measurement": "Seizure frequency: Focal without impairment", "setting": "Patient 7, 4 weeks, CBD 20.0 mg/kg/day, baseline 233.0", "result": 62.0, "unit": "seizures per week"},
      {"measurement": "Seizure frequency: Focal with impairment", "setting": "Patient 7, 8 weeks, CBD 25.0 mg/kg/day", "result": 35.0, "unit": "seizures per week"},
      {"measurement": "Seizure frequency: Focal without impairment", "setting": "Patient 7, 8 weeks, CBD 25.0 mg/kg/day, baseline 233.0", "result": 125.0, "unit": "seizures per week"},
      {"measurement": "Seizure frequency: Focal with impairment", "setting": "Patient 7, 12 weeks, CBD 25.0 mg/kg/day", "result": 40.0, "unit": "seizures per week"},
      {"measurement": "Seizure frequency: Focal without impairment", "setting": "Patient 7, 12 weeks, CBD 25.0 mg/kg/day, baseline 233.0", "result": 112.0, "unit": "seizures per week"},
      {"measurement": "Seizure frequency: Focal with impairment", "setting": "Patient 7, 16 weeks, CBD 25.0 mg/kg/day", "result": 66.7, "unit": "seizures per week"},
      {"measurement": "Seizure frequency: Focal without impairment", "setting": "Patient 7, 16 weeks, CBD 25.0 mg/kg/day, baseline 233.0", "result": 93.3, "unit": "seizures per week"},
      {"measurement": "Seizure frequency: Focal with impairment", "setting": "Patient 7, 24 weeks, CBD 25.0 mg/kg/day", "result": 62.4, "unit": "seizures per week"},
      {"measurement": "Seizure frequency: Focal without impairment", "setting": "Patient 7, 24 weeks, CBD 25.0 mg/kg/day, baseline 233.0", "result": 96.8, "unit": "seizures per week"},
      {"measurement": "Seizure frequency: Focal with impairment", "setting": "Patient 7, 36 weeks, CBD 20.0 mg/kg/day", "result": 94.8, "unit": "seizures per week"},
      {"measurement": "Seizure frequency: Focal without impairment", "setting": "Patient 7, 36 weeks, CBD 20.0 mg/kg/day, baseline 233.0", "result": 39.7, "unit": "seizures per week"},
      {"measurement": "Seizure frequency: Focal with impairment", "setting": "Patient 7, 48 weeks, CBD 20.0 mg/kg/day", "result": 62.5, "unit": "seizures per week"},
      {"measurement": "Seizure frequency: Focal without impairment", "setting": "Patient 7, 48 weeks, CBD 20.0 mg/kg/day, baseline 233.0", "result": 92.9, "unit": "seizures per week"},
      {"measurement": "Seizure frequency: Focal with impairment", "setting": "Patient 7, 60 weeks, CBD 20.0 mg/kg/day", "result": 72.8, "unit": "seizures per week"},
      {"measurement": "Seizure frequency: Focal without impairment", "setting": "Patient 7, 60 weeks, CBD 20.0 mg/kg/day, baseline 233.0", "result": 141.2, "unit": "seizures per week"},
      {"measurement": "Seizure frequency: Focal with impairment", "setting": "Patient 7, 72 weeks, CBD 20.0 mg/kg/day", "result": 179.7, "unit": "seizures per week"},
      {"measurement": "Seizure frequency: Focal without impairment", "setting": "Patient 7, 72 weeks, CBD 20.0 mg/kg/day, baseline 233.0", "result": 139.4, "unit": "seizures per week"},
      {"measurement": "reduction in focal seizures without impairment over the treatment period", "setting": "Patient 7, treated for 72 weeks, vs baseline", "result": 40.2, "unit": "%"},
      {"measurement": "Seizure frequency: Tonic", "setting": "Patient 8, 4 weeks, CBD 20.0 mg/kg/day, baseline 280.0", "result": 6.0, "unit": "seizures per week"},
      {"measurement": "Seizure frequency: Tonic", "setting": "Patient 8, 8 weeks, CBD 25.0 mg/kg/day, baseline 280.0", "result": 5.0, "unit": "seizures per week"},
      {"measurement": "Seizure frequency: Atonic", "setting": "Patient 8, 12 weeks, CBD 25.0 mg/kg/day", "result": 12.0, "unit": "seizures per week"},
      {"measurement": "Seizure frequency: Tonic", "setting": "Patient 8, 12 weeks, CBD 25.0 mg/kg/day, baseline 280.0", "result": 60.0, "unit": "seizures per week"},
      {"measurement": "Seizure frequency: Atonic", "setting": "Patient 8, 16 weeks, CBD 25.0 mg/kg/day", "result": 24.0, "unit": "seizures per week"},
      {"measurement": "Seizure frequency: Tonic", "setting": "Patient 8, 16 weeks, CBD 25.0 mg/kg/day, baseline 280.0", "result": 56.0, "unit": "seizures per week"},
      {"measurement": "Seizure frequency: Atonic", "setting": "Patient 8, 24 weeks, CBD 25.0 mg/kg/day", "result": 4.0, "unit": "seizures per week"},
      {"measurement": "Seizure frequency: Tonic", "setting": "Patient 8, 24 weeks, CBD 25.0 mg/kg/day, baseline 280.0", "result": 32.0, "unit": "seizures per week"},
      {"measurement": "Seizure frequency: Atonic", "setting": "Patient 8, 36 weeks, CBD 10.0 mg/kg/day", "result": 4.0, "unit": "seizures per week"},
      {"measurement": "Seizure frequency: Tonic", "setting": "Patient 8, 36 weeks, CBD 10.0 mg/kg/day, baseline 280.0", "result": 896.0, "unit": "seizures per week"},
      {"measurement": "reduction in atonic seizures over the treatment period", "setting": "Patient 8, treated for 36 weeks, vs baseline", "result": 95.0, "unit": "%"},
      {"measurement": "reductions in seizures over period of treatment, overall", "setting": "all patients, atonic, tonic and focal without impairment seizures", "result": "40.2-100.0%"},
      {"measurement": "seizure freedom from tonic seizures", "setting": "one patient (patient 5), after 12 months of CBD treatment", "result": "seizure free of tonic seizures; also recorded: completely seizure free"},
      {"measurement": "effect on frequency of atonic, tonic and focal without impairment seizures (in words)", "setting": "patients with Cortical Dysplasia and Cortical Brain Malformation", "result": "effective in reducing the frequency; also recorded: significantly reduce the number of seizures; also recorded: significant reduction"}
    ]}
  ]
}
